Measured values from publication PMC4356558, “Prediction of Chemical Respiratory Sensitizers Using GARD, a Novel In Vitro Assay Based on a Genomic Biomarker Signature” (PLoS ONE, 2015).
Converted amounts (≈) assume the structure as drawn. Like-named read-outs stand apart in the source and are kept apart here.

Experiments:
[1] = test system: GRPS genomic biomarker signature (389 transcripts) in MUTZ-3 cells; assay: GARD assay with GARD Respiratory Prediction Signature (GRPS), SVM classification of respiratory sensitizers
Description: (§1) The human acute myelomonocytic leukemia cell line MUTZ-3[68, 69] was obtained from Leibniz-Institut DSMZ-Deutsche Sammlung von Mikroorganismen und Zellkulturen (DSMZ, Braunschweig, Germany). Maintenance of cells, chemical stimulation of MUTZ-3 and all subsequent isolation of mRNA and preparation of cDNA were performed as previously described. In short, a phenotypic control of MUTZ-3 was performed using flow cytometry prior to chemical stimulation to ensure cells were in an immature state. The following FITC-conjugated mouse monoclonal antibodies (mAbs) were used: CD1a (DakoCytomation, Glostrup, Denmark), CD34, CD86, HLA-DR, IgG1 (BD Biosciences, Franklin Lakes, NJ). The following PE-conjugated mouse monoclonal antibodies were used: CD14 (DakoCytomation), CD54, CD80, IgG1 (BD Biosciences). Cell viability was determined using Propidium Iodide (BD Biosciences) staining. Samples were run on FACSCanto II instrument. Data was acquired using FACS Diva software (BD Biosciences) and analyzed using FCS Express V4 (De Novo Software, Los Angeles, CA). Gating was performed to exclude cell debris and non-viable cells based on forward- and side-scattering properties and quadrants established using isotype-controls. During chemical exposure, cells were seeded at 200.000 cells/ml in 24-well plates and exposed to chemical compound at the GARD input concentration. Stimulated cells were harvested after 24h incubation at 37 °C, 5% CO2 and RNA was isolated with TRIzol reagent (Life Technologies, Carlsbad, CA) using standardized protocols provided by the manufacturer. In parallel, a control of the maturity state of the cells was performed by flow cytometric analysis of CD86. Preparation of cDNA and hybridization, washing and scanning of the Human Gene 1.0 ST Arrays (Affymetrix, Santa Clara, CA, USA) was performed, according to standardized protocols provided by the manufacturer (Affymetrix).
Gene expression data obtained from the Human Gene 1.0 ST Arrays were normalized using the Single-Channel array normalization (SCAN) algorithm, and potential batch effects between different set of experiments were adjusted using the ComBat empirical bayes method. Normalizations and batch adjustments were performed in R statistical software using the open software Bioconductor v2.14 [73] with the additional software packages SCAN.UPC [70] and sva. Normalized data was imported into Qlucore Omics Explorer 3.0 (Qlucore AB, Lund, Sweden) and visualized using Principal Component Analysis (PCA). Predictors were selected from a one-way ANOVA p-value filtration, using false discovery rate (FDR) to adjust for multiple hypothesis testing, comparing respiratory sensitizers and non-respiratory sensitizers. […] The Backward Elimination algorithm was modified to minimize the Kullback-Leibler error [53] rather than maximizing the Area Under the Receiver Operating Characteristic (AUC ROC), in order to enable signature optimization in cases where the AUC ROC reaches 1.0. […] The script for Backwards Elimination was programmed in R, with the additional package e1071 [78]. The method by which the predictive genomic biomarker signature was established was validated using cross-validation based on Support Vector Machines (SVM), based on a linear kernel, as described previously. In short, the training dataset was randomly divided into a new cross-validation training dataset comprising 70% of the stimulations, and a cross-validation test dataset comprising 30% of the stimulations. In addition, care was taken to maintain the same proportion between respiratory sensitizers and non-respiratory sensitizers as in the complete training dataset. A new predictive genomic biomarker signature was identified from the cross-validation training dataset using one-way ANOVA p-value filtration as described above.

MUTZ-3 cells = assay: Chemical cytotoxicity, concentration yielding 90% relative viability (Rv90), propidium iodide staining
Excerpt: A panel of 32 reference chemicals comprising a selection of 10 well characterized respiratory sensitizers and 22 non-respiratory sensitizers, collectively termed the training dataset, were used for cell stimulations in order to establish the predictive genomic biomarker signature. […] Additionally, a panel of 25 chemicals, including 6 respiratory sensitizers and 19 non-respiratory sensitizers, collectively termed the independent test dataset, were used for cell stimulations in order to form an independent testset for validation of the identified predictive genomic biomarker signature. The […] comprised both control chemicals, included during the training of the model, as well as chemicals previously unseen during training of the model. […] All chemicals were purchased from Sigma-Aldrich (St. Louis, MO, USA). Chemicals were dissolved and diluted into GARD input concentration in either water or DMSO prior to stimulation of cells. For chemicals dissolved in DMSO, the in-well concentration of DMSO was 0.1%. Monitoring of chemical cytotoxicity and establishment of GARD input concentration for each chemical compound was performed as previously described. […] Toxic compounds were used at a concentration yielding 90% relative viability (Rv90). The criterion that was first met determined the GARD input concentration for each compound.
as §1

[2] = test system: CD86 expression of MUTZ-3 cells; assay: CD86 cell surface expression of MUTZ-3 cells following chemical stimulation, flow cytometry; type: cell-based, human; details: 24 h stimulation at GARD input concentration; students t-test, p<0.05
[3] = Max solubility of chemicals in cell media (establishment of GARD input concentration); details: for Max solubility: dissolved in vehicle (water or DMSO); for solubility: aqueous buffer, kinetic from dmso stock
physchem = details: aqueous buffer, kinetic from dmso stock
[4] = test system: GPS genomic biomarker signature (200 genes) in MUTZ-3 cells
Description: The GARD assay is based on measurements of transcriptional levels of a genomic biomarker signature (GARD Prediction Signature, or GPS) comprising 200 genes in the myeloid human cell line MUTZ-3 [43–45] using transcriptome-wide DNA microarray technology.
The human acute myelomonocytic leukemia cell line MUTZ-3[68, 69] was obtained from Leibniz-Institut DSMZ-Deutsche Sammlung von Mikroorganismen und Zellkulturen (DSMZ, Braunschweig, Germany). Maintenance of cells, chemical stimulation of MUTZ-3 and all subsequent isolation of mRNA and preparation of cDNA were performed as previously described [41, 42]. In short, a phenotypic control of MUTZ-3 was performed using flow cytometry prior to chemical stimulation to ensure cells were in an immature state. The following FITC-conjugated mouse monoclonal antibodies (mAbs) were used: CD1a (DakoCytomation, Glostrup, Denmark), CD34, CD86, HLA-DR, IgG1 (BD Biosciences, Franklin Lakes, NJ). The following PE-conjugated mouse monoclonal antibodies were used: CD14 (DakoCytomation), CD54, CD80, IgG1 (BD Biosciences). Cell viability was determined using Propidium Iodide (BD Biosciences) staining. Samples were run on FACSCanto II instrument. Data was acquired using FACS Diva software (BD Biosciences) and analyzed using FCS Express V4 (De Novo Software, Los Angeles, CA). […]

[5] = replicate stimulation 1, 24 h at GARD input concentration, independent test dataset, > 0 = respiratory sensitizer
[6] = replicate stimulation 2, 24 h at GARD input concentration, independent test dataset, > 0 = respiratory sensitizer
[7] = replicate stimulation 3, 24 h at GARD input concentration, independent test dataset, > 0 = respiratory sensitizer
[8] = respiratory sensitizer if any of replicate stimulations has SVM decision value > 0
[9] = concentration yielding 90% relative viability, MUTZ-3, training dataset
[10] = reference compounds of the training dataset

Row | SMILES | SVM decision value 1 [1, 5] | SVM decision value 2 [1, 6] | SVM decision value 3 [1, 7] | Classification, Pos if 1 sample > 0 [1, 8] | further results
1 | CCCCO [1-Butanol] | – | – | – | – | Classification, Pos if 1 sample > 0 [1]: Sensitizer; SVM decision value 1 [1]: −0.32; SVM decision value 2 [1]: 0.12
2 | O=[N+]([O-])c1ccc(Cl)c([N+](=O)[O-])c1 [2,4-dinitrochlorobenzene] | −1.66 | −1.18 | −1.90 | Non-sensitizer | Rv90 (MUTZ-3 cells; human): 4 µM
3 | Nc1ccccc1O [2-Aminophenol] | – | – | – | – | Rv90 (MUTZ-3 cells; human): 100 µM; Up-regulation of CD86 in comparison to unstimulated cells [2]: up-regulation of CD86 was also observed
4 | C=CC(=O)OCCO [2-Hydroxyethyl acrylate] | – | – | – | – | Rv90 (MUTZ-3 cells; [9]): 100 µM
5 | Sc1nc2ccccc2s1 [2-mercaptobenzothiazole] | −0.44 | −0.43 | −0.57 | – | –
6 | [Cl][Pt-2]([Cl])([Cl])([Cl])([Cl])[Cl].[NH4+].[NH4+] [Ammonium hexachloroplatinate] | – | – | – | – | Max solubility [3, 10]: 35 µM; Up-regulation of CD86 in comparison to unstimulated cells [2]: statistically significant
7 | O=Cc1ccccc1 [Benzaldehyde] | −0.79 | −0.87 | −0.70 | Non-sensitizer | –
8 | Cc1ccc(S(=O)(=O)NCl)cc1 [Chloramine T] | 0.52 | 0.59 | – | Sensitizer | –
9 | Clc1ccccc1 [Chlorobenzene] | −1.03 | −0.76 | −1.15 | Sensitizer | SVM decision value 4 ([1]; replicate stimulation 4, 24 h at GARD input concentration, independent test dataset, > 0 = respiratory sensitizer): 0.24; SVM decision value 5 ([1]; replicate stimulation 5, 24 h at GARD input concentration, independent test dataset, > 0 = respiratory sensitizer): 0.06
10 | OCC=Cc1ccccc1 [Cinnamyl alcohol] | −0.57 | – | −1.26 | Non-sensitizer | solubility [3]: 500 µM (≈ 67.1 µg/mL)
11 | CCOC(=O)c1ccccc1C(=O)OCC [Diethyl phthalate] | −1.37 | −0.96 | −1.22 | Non-sensitizer | –
12 | C=CCc1ccc(O)c(OC)c1 [Eugenol] | −1.67 | −1.53 | −1.51 | Non-sensitizer | Rv90 (MUTZ-3 cells; concentration yielding 90% relative viability, MUTZ-3, independent test dataset): 300 µM
13 | C=O [Formaldehyde] | – | – | – | – | Rv90 (MUTZ-3 cells): 80 µM
14 | O=CCCCC=O [Glutaraldehyde] | – | – | – | – | Rv90 (MUTZ-3 cells; [9]): 10 µM; Up-regulation of CD86 in comparison to unstimulated cells [2]: statistically significant
15 | OCC(O)CO [Glycerol] | −1.05 | −1.11 | −0.77 | Non-sensitizer | –
16 | O=CC=O [Glyoxal] | −1.02 | −0.69 | −0.56 | Non-sensitizer | Rv90 (MUTZ-3 cells): 300 µM
17 | O=C=NCCCCCCN=C=O [Hexamethylen diisocyanate] | – | – | – | – | solubility (physchem): 100 µM (≈ 16.8 µg/mL)
18 | CC(O)C(=O)O (centres unmarked) [Lactic acid] | −1.20 | −0.81 | −0.89 | – | –
19 | O=C=Nc1ccc(Cc2ccc(N=C=O)cc2)cc1 [Methylene diphenol diisocyanate] | – | – | – | – | Max solubility [3, 10]: 50 µM
20 | CCCCCCCC(=O)O [Octanoic acid] | −0.65 | −0.79 | −1.22 | Non-sensitizer | –
21 | Oc1ccccc1 [Phenol] | – | – | – | – | Classification, Pos if 1 sample > 0 [1]: Non-sensitizer; SVM decision value 1 ([1]; human): −1.04; SVM decision value 2 ([1]; human): −0.38; SVM decision value 3 ([1]; human): −0.95
22 | O=C1OC(=O)c2ccccc21 [Phtalic Anhydride] | 0.20 | −0.12 | – | Sensitizer | Max solubility ([3]; chemicals of the independent test dataset): 200 µM; Max solubility [3, 10]: 200 µM
23 | C1CNCCN1 [Piperazine] | −0.05 | −0.12 | – | Non-sensitizer | Prediction in the GARD assay (skin sensitization) [4]: accurately predicted as skin sensitizers; GRPS prediction compared with true identity ([1]; validation using the independent dataset): false negatives
24 | Oc1cccc(O)c1 [Resorcinol] | −1.01 | −0.99 | −1.40 | Non-sensitizer | –
25 | O=C(O)c1ccccc1O [Salicylic acid] | −0.73 | −1.08 | −1.13 | Non-sensitizer | –
26 | CCCCCCCCCCCCOS(=O)(=O)[O-].[Na+] [Sodium dodecyl sulphate] | – | – | – | – | Rv90 (MUTZ-3 cells): 200 µM; Classification, Pos if 1 sample > 0 [1]: Non-sensitizer; SVM decision value 1 [1]: −1.49; SVM decision value 2 [1]: −0.80; SVM decision value 3 [1]: −1.30
27 | Cc1ccc(N=C=O)cc1N=C=O [Toluendiisocyanate] | – | – | – | – | solubility (physchem): 40 µM (≈ 6.97 µg/mL)
28 | O=C(O)c1ccc2c(c1)C(=O)OC2=O [Trimellitic anhydride] | – | – | – | – | solubility [3]: 150 µM (≈ 28.8 µg/mL)
29 | O=C(O)c1ccc(O)cc1 [p-hydroxybenzoic acid] | −0.81 | −0.56 | −1.09 | Non-sensitizer | –
30 | Nc1ccc(N)cc1 [p-phenylenediamine] | −1.38 | −1.19 | −1.80 | Non-sensitizer | Rv90 (MUTZ-3 cells): 75 µM
